Source: US8859615B2, “Compounds, compositions and methods for reducing toxicity and treating or preventing diseases” (priority 2008, dated 2014)
Where two headings read alike, the source gives them in different places.

How the values were obtained:
[1] = system: quinone reductase (NQO1) in Hepa 1c1c7 murine hepatoma cells; experiment: Phase 2 enzyme inducer activity (Prochaska microtiter plate bioassay); conditions: Hepa 1c1c7 cells
Protocol: Pure panaxytriol was dissolved in dimethyl sulfoxide. Phase 2 enzyme inducer activity was measured using a rapid assay of activity of representative phase 2 enzyme in a cell line. This assay was originally developed by Prochaska and colleagues as in Prochaska H J, Santamaria A B, Talalay P. “Rapid detection of inducers of enzymes that protect against carcinogens.” Proc Natl Acad Sci US A 1992; 89:2394-2398, and has been further refined as in Fahey J W, Dinkova-Kostova A T, Stephenson K K, Talalay P. “The “Prochaska” microtiter plate bioassay for inducers of NQO1.” Methods Enzymol. 2004; 382:243-258, each of which are incorporated by reference in its entirety. Briefly, Hepa 1c1c7 murine hepatoma cells were grown in 96-well microtiter plates. Serial dilutions of the extracts or compounds which were assayed were added into the wells. After 48 hours, the cells were lysed and the activity of quinone reductase (NQO1) was assayed by the addition of a reaction mixture containing an NADPH-generating system, menadione and MTT. NQO1 catalyzes the reduction of menadione to menadiol by NADPH, and MTT is reduced nonenzymatically by menadiol, resulting in the formation of a blue color that can then be quantitated as in Prochaska H J, Santamaria A B. “Direct measurement of NAD(P)H:quinone reductase from cells cultured in microtiter wells: a screening assay for anticarcinogenic enzyme inducers.” Anal. Biochem. 1988; 169:328-336, which is incorporated by reference in its entirety. […] NQO1 activity and protein content of the lysate were measured in duplicate plates with an optical microtiter plate absorbance reader. […] One unit of inducer activity is defined as the amount that, when added to a single microtiter well, doubles the NQO1 specific activity. Sulforaphane and β-naphthoflavone were used as positive controls in each bioassay. […] NQO1 inducer activity was assayed as described herein, and is reported here as treated/control at different concentrations of ginseng extract or component per well. […] (+) Panaxytriol (molecular weight […]), (Δ) Protopanaxatriol (molecular weight 461), (◯) Korean red SUN GINSENG® extract. The reductase assay can also be performed as disclosed in PCT Publication No. WO 06/023821, the entire contents of which are hereby incorporated in the instant application.

[2] = system: human mammary carcinoma MX-1 xenografts; conditions: nude, mouse, in vivo
[3] = system: CCRF-CEM human T-cell acute lymphoblastic leukemia cells; experiment: In vitro cytotoxicity against CCRF-CEM (XTT / CCK-8 tetrazolium assay, 72 hr); conditions: for IC50: Homo sapiens, CCRF-CEM
[4] = system: CCRF-CEM/VBL100 vinblastine-resistant cells; experiment: In vitro cytotoxicity against vinblastine-resistant CCRF-CEM subline; format: cell-based, human; conditions: for IC50: Homo sapiens, CCRF-CEM, 72 h, CCK-8, 72-hr incubation, read-out: IC50 CCRF-CEM/Vinblastine
Protocol: The cytotoxicity IC50 of each compound was measured with the XTT assay using the 2,3-bis(2-methoxy-4-nitro-5-sulfophenyl)-5-[(phenylamino)carbonyl]-2H-tetrazolium hydroxide (XTT) microculture method as described in Scudiero et al., Cancer Res., 48:4827 (1988), the contents of which are hereby incorporated by reference in their entirety. The CCK-8 assay is a cell counting kit-8 (CCK-8) tetrazolium assay using a 96-well microplate (Dojindo Molecular Technologies, Inc., Rockville, Md.) (M. Ishiyama et al., Biol. Pharm. Bull. 19: 1518, 1996). Absorbance was measured by Powerwave a XS microplate spectrophotometer. This method described is considered a general method in vitro cytotoxicity studies.
(§1) The data in Tables 2X, 3A-E, 4, 5, and 6 were obtained using the cell counting kit-8 (CCK-8) tetrazolium assay in a 96-well microplate. Five to seven concentrations of each compound in triplicate were used, and the IC50 values were determined by CompuSyn software automation (Chou T C. and Martin N. ComboSyn, Inc., 2006) based on the median-effect equation and plot (Chou T C. J. Theor. Biol. 59:235-276, 1976; Chou T C. Pharmacol. Rev. 58: 621-681, 2006). […] The r value defines the correlation coefficient of the median-effect plot which signifies the conformity to the mass-action law principle (Chou T C. J. Theor. Biol. 59:235-276, 1976; Chou T C. Pharmacol. Rev. 58:621-681, 2006). These parameters were determined by CompuSyn simulation (available at http://www.combosyn.com).
CCRF-CEM human T-cell acute lymphoblastic leukemia cells and the corresponding vinblastine-resistant cells (CCRF-CEM/VBL100) were cultured at an initial density of 5×10^4 cells per milliliter. The cultured cells were maintained in a 5% CO2-humidified atmosphere at 37° C. in RPMI medium 1640 (GIBCO/BRL) containing penicillin (100 units/mL), streptomycin (100 μg/mL, GIBCO/BRL), and 10% heat-inactivated fetal bovine serum. The cytotoxicity of each Compound of the invention was measured using the 2,3-bis(2-methoxy-4-nitro-5-sulfophenyl)-5-[(phenylamino)carbonyl]-2H-tetrazolium hydroxide (XTT) microculture method as described in Scudiero et al., Cancer Res., 48:4827 (1988), the contents of which are hereby incorporated by reference in their entirety.
(§2) Absorbance was measured by Powerwave XS microplate spectrophotometer.

HCT-116 colon carcinoma = experiment: Cytotoxicity against solid tumor cells, CCK-8, 72 hrs (Table 4); format: cell-based; conditions: Homo sapiens
Protocol: (§3) Compounds are also evaluated against A-549 lung carcinoma and SK-OV-3 ovarian adenocarcinoma cell lines using the methodology as for Table 3. The potency order for the compounds may vary in different tumor cell lines. […] Absorbance was measured using a Powerwave XS microplate spectrophotometer.

MX-1 mammary carcinoma = experiment: as above; format: cell-based; conditions: Homo sapiens
Protocol: as §3

A-549 lung carcinoma = experiment: Cytotoxicity against solid tumor cells (Table 4); format: cell-based; conditions: Homo sapiens, A549, CCK-8, 72 hrs
Protocol: as §3

[5] = system: SK-OV-3 ovarian adenocarcinoma; experiment: Cytotoxicity against solid tumor cells (Table 4); format: cell-based; conditions: Homo sapiens, CCK-8, 72 hrs
Protocol: as §3

human PBMC lymphocytes = experiment: DNA synthesis ([3H]thymidine incorporation) in human PBMC lymphocytes (FIG. 8); format: cell-based
Source text: FIG. 8 show the effects of PHA and different concentrations of compounds of the invention, at different time points, on the proliferation of a culture of human lymphocytes as measured by DNA synthesis through incorporation of radiolabeled thymidine into the DNA.
The main principle and method of experiments for human PBMC lymphocytes and for mouse splenocytes stimulations were the same, since both measure immunological cell stimulation by PHA, PXT and compounds of the invention. Both the lymphocyte and the splenocyte assays measure the ^3H-dThd tracer as an indication of DNA synthesis. For PBMC lymphocytes (FIGS. 9A-9G), the experimental methods are those for splenocytes disclosed in Example 24 (FIGS. 11A-11F; FIGS. 12A-12E), except 0.282×10^6 PBMC lymphocyte cells in 198.5 μl was used, and the experimental incubation time was extended to 120 hr.
Briefly, to generate the data in Tables 8A and 8B, the compounds were tested in a [^3H] thymidine uptake experiment using PBMC human lymphocytes obtained from the New York Blood Center. PBMC human lymphocytes were exposed to compounds at 0.03, 0.1, 0.3, and 1.0 μM for 24 hours, and examined for increased [^3H] thymidine uptake. Human lymphocytes were also exposed to compounds for an extended time, e.g., 48 hrs and 72 hrs, instead of 24 hrs, in the [^3H] thymidine uptake assay, and examined to determine the extent of increased [^3H] thymidine uptake to determine if extended exposure will further increase the immune-enhancing effects of the compounds. Increased [^3H] thymidine uptake is interpreted as increased DNA synthesis, which indicates cell growth and division. In the case of immune system cells, this should result in an immune-enhancing effect. The compounds are compared by their IC50 values and/or their effect on [^3H] thymidine uptake at a given concentration and/or time point.

[6] = system: human lymphoblastic leukemic T-cell growth; experiment: Cytotoxic activity relative to stability during storage at −20° C. in DMSO (Table 10); format: cell-based; conditions: for IC50: Homo sapiens, CCRF-CEM, 72 h, Table 10, XTT, 72 hr
Source text: Without wishing to be bound by theory, the oxidized versions may be active metabolites. This theory provides an explanation of the delayed onset of therapeutic effects seen in the figures herein. The oxidized compounds may be active agents that are formed slowly upon metabolic oxidation. […] The active metabolites may explain the biphasic pharmacological properties of panaxytriol or Compound D that have been observed (FIGS. 9B, C, D; FIGS. 11D, E, F, and FIGS. 12D, E). […] Induction of the phase 2 enzymes may slow oxidation of the compounds (Ng et al., Tetrahedron Letters. 49: 7178-7179 (2008)).

[7] = system: human mammary carcinoma MX-1 xenograft; experiment: Therapeutic effect and body weight in nude mice bearing MX-1 xenograft, single agents
Protocol: FIGS. 1A and 1B show the therapeutic, anti-cancer effects of various dosage regimens of panaxytriol and Compound (A), respectively, given by i.v. injection in nude mice bearing human mammary carcinoma MX-1 xenograft tumors, which is an in vivo model for breast cancer. […] The compounds were administered starting on day 8.
An in vivo assay uses male athymic nude mice bearing the nu/nu gene (6 weeks of age or older, weighing between 20 and 22 g, obtainable from NCl, Frederick, Md.) into which one or more human tumor xenografts are been implanted.
Nude mice having human mammary carcinoma xenograft MX-1 were treated with panaxytriol or Compound (A) at various dosages through the slow i.v. infusion protocol by Chou et al. (Chou, T. C., et al, Proc. Natl. Acad. Sci. U.S.A. 95: 15798 (1998), the contents of which are herein incorporated by reference in their entirety).

[8] = system: CCRF-CEM subline resistant to TAXOL; experiment: In vitro cytotoxicity against TAXOL-resistant CCRF-CEM subline; format: cell-based, human; conditions: Homo sapiens, CCRF-CEM; Table 3D; CCK-8, 72-hr incubation; read-out: IC50 CCRF-CEM/TAXOL
Protocol: as §1, §2

[9] = mouse, in vivo
Protocol: The experimental procedure for FIG. 14 was carried out similarly to that in FIG. 1. * means P<0.1 and ** means P<0.05. Body weight was calculated as described for FIGS. 1 and 4-7.
The experiments were performed as indicated for FIG. 14, with Compound (K) being administered orally. Compound K was administered on the days indicated by the arrows at the top of the graph, and paclitaxel was administered on the days indicated by the arrows on the bottom of the graph. Body weight was calculated as described for FIGS. 1, 4-7, 14 and 15. * means P<0.1 and ** means P<0.05.

[10] = system: quinone reductase (NQO1) in Hepa 1c1c7 murine hepatoma cells; conditions: for comparison; cited from earlier work
[11] = system: human colon carcinoma HCT-116 xenografts; experiment: Compound D with Iso-Oxazole-Fludelone or Isodehydelone in nude mice bearing HCT-116 xenografts; conditions: FIG. 15; Isodehydelone 6 hr-iv infusion, with or without oral Compound (D); n=7
[12] = 72 h, read-out: IC50 CCRF-CEM, Table 3D, CCK-8, 72-hr incubation
[13] = read-out: IC50 (in μM), cytotoxic potency against cancer cell line growth in vitro, Table 3C, cell line not given

Molecule: CC(C)=CCCC(C)(O)[C@H]1CC[C@]2(C)[C@@H]1[C@H](O)C[C@@H]1[C@@]3(C)CC[C@H](O)C(C)(C)[C@@H]3CC[C@]12C (stereo in doubt) [protopanaxadiol]
- significant cytotoxicity observed above [1]: above 5 μg/well

Molecule: O=c1[nH]cc(F)c(=O)[nH]1 [Compound 5FU, 5-fluoro-uracil]
- mice died [2]: 5/8

Molecule: C=C[C@@H](O)C#CC#CC[C@H]1OC(C)(C)O[C@@H]1CCCCCCC [Compound (A)]
- anti-cancer activity in the in vitro cytotoxicity assay [3]: active against cancer
- IC50 [3, 12]: 0.803 µM
- IC50 ([4]; Table 3D): 1120 nM
- cross-resistance to TAXOL or vinblastine ([4]; TAXOL- or vinblastine-resistant (MDR) sublines): do not appear to be cross-resistant to TAXOL or vinblastine
- fold resistance in brackets (IC50 CCRF-CEM/VBL vs CCRF-CEM) ([4]; Table 3): 1.22 x
- fold resistance (IC50 CCRF-CEM/VBL vs parent CCRF-CEM) ([4]; Table 3A): 1.4 fold
- fold of cross-resistance (CCRF-CEM/Vinblastine vs parent cell line) ([4]; Table 3D, given as x or -fold): 1.4 fold
- IC50 (HCT-116 colon carcinoma): 1280 nM
- IC50 (MX-1 mammary carcinoma): 1920 nM
- IC50 (A-549 lung carcinoma): 3950 nM
- IC50 [5]: 3000 nM
- time of maximal stimulation of lymphocyte (human PBMC lymphocytes): 120 h
- IC50 ([6]; Aug. 22, 2003 (Stored), same solution kept at −20° C. in DMSO, read-out: IC50 in μM CCRF-CEM): 2.12 µM
- IC50 ([6]; Aug. 22, 2003 (Stored), same solution kept at −20° C. in DMSO, read-out: IC50 in μM CCRF-CEM/VBL): 2.37 µM
- IC50 ([6]; Jul. 25, 2003 (Fresh), read-out: IC50 in μM CCRF-CEM): 1.21 ± 0.03 µM
- IC50 ([6]; Jul. 25, 2003 (Fresh), read-out: IC50 in μM CCRF-CEM/VBL): 1.22 ± 0.15 µM
- tumor suppression compared to the control tumor size ([7]; Day 24, i.v. injection Q2D, escalating doses from day 8, FIGS. 1A, 1B): 47.7%
- antitumor effects against MX-1 xenografts ([7]; mouse, in vivo): antitumor effects
- level inhibiting tumor growth (as low as) ([7]; mouse, in vivo): 10 mg/kg

Molecule: CCCCCCC[C@H]1OC(C)(C)O[C@@H]1CC#CC#CC(=O)CC [Compound (J)]
- IC50 [3, 12]: 0.83 ± 0.26 µM
- IC50 [3, 13]: 0.83 µM
- IC50 ([4]; Table 3D): 1190 nM
- IC50 [8]: 1720 nM
- IC50 (HCT-116 colon carcinoma): 1090 nM
- IC50 (MX-1 mammary carcinoma): 1470 nM
- IC50 (A-549 lung carcinoma): 12600 nM
- IC50 [5]: 13000 nM

Molecule: CCCCCCC[C@H]1OC(C)(C)O[C@@H]1CC#CC#C[C@@H](O)CC [Compound (K)]
- IC50 [3, 12]: 2.03 ± 0.13 µM
- IC50 [3, 13]: 2.03 µM
- IC50 ([4]; Table 3D): 3300 nM
- IC50 [8]: 3570 nM
- IC50 (HCT-116 colon carcinoma): 3170 nM
- IC50 (MX-1 mammary carcinoma): 3440 nM
- IC50 (A-549 lung carcinoma): 1020 nM
- IC50 [5]: 4030 nM
- stability (shelf life) ([6]; compared with Compound D): more stable than Compound D
- reduction of paclitaxel-induced general toxicity and neurotoxicity compared with Compound D [9]: superior to Compound D
- effect of oral administration on paclitaxel toxicity ([9]; po): orally effective in Reducing the Toxicity of paclitaxel and improving recovery after treatment

Molecule: C=Cc1c(C)c2cc3nc(c4c5[n-]c(cc6nc(cc1[n-]2)C(C)=C6CC)c(C)c5C(=O)[C@@H]4C(=O)OC)[C@@H](CCC(=O)OC/C=C(\C)CCC[C@H](C)CCC[C@H](C)CCCC(C)C)[C@@H]3C.[Mg+2] [chlorophyll a]
- reported CD value [10]: 250 µM
- reported inducer potency [10]: 24,600 U/g

Molecule: C[S+]([O-])CCCCN=C=S (stereo not drawn) [sulforaphane]
- reported CD value [10]: 0.2 µM
- reported inducer potency [10]: 188,000,000 U/g

Molecule: iso-oxazole-dehydelone (17-isooxazole-dehydelone) [isodehydelone]
- mice died [11]: Two
